What was measured:
μ opioid receptor = molecular target: T1, μ opioid receptor (Rattus norvegicus, UniProt P33535); experiment: Radioligand binding, [3H]DAMGO competition, rat brain membranes
T1 construct: tissue Pel-Freeze Biological Inc. (Rogers, Ark.); host or cells: rat whole brain membranes
Experimental: (§1) Two stereoisomerically related racemic mixtures and inclusive enantiomers were evaluated for in vitro opioid receptor affinity in rat brain membranes (μ and δ opioid) and guinea pig cerebellum (κ opioid receptor). Membranes for radioligand binding were prepared from either rat whole brain or guinea pig cerebellum, supplied by Pel-Freeze Biological Inc. (Rogers, Ark.). Tissues were homogenized in 50 mM TRIS (Tris[hydrooxymethyl]aminomethane) buffer (pH 7.4) containing 50 ug/ml soybean trypsin inhibitor, 1 mM EDTA (Ethylenediaminetetraacetic acid), and 100 μM PMSF (Phenylmethylsulfonyl fluoride). The homogenized brain tissues were centrifuged at 500×g for 30 minutes (4° C.) to remove large debris. The supernatant was polytronically sonicated for 10 seconds (P.E. setting of 2, 4° C.). Sucrose solution was then added to a final concentration of 0.35 M using a 10 mM TRIS-Sucrose buffer (pH 7.4) and the brain membranes were then centrifuged at 40,000×g for 30 minutes (4° C.). The membrane pellets were then washed twice in 10 mM TRIS buffer (pH 7.4) containing 50 μg/ml soybean trypsin inhibitor, 1 mM EDTA, and 100 μM PMSF.
(§2) Radioligand binding assays were performed in 10 mM TRIS buffer (pH 7.4) containing 50 μg/ml soybean trypsin inhibitor, 1 mM EDTA, 5 mM MgCl2, and 100 μM PMSF. Tritium-labeled DAMGO (μ), Deltorphin II (δ), or U69593 (κ) purchased from New England Nuclear were used as ligands in competitive experiments (2-3×10^−10 M final concentrations) with non-specific binding defined by 0.5×10^−6 M Naloxone (purchased from SIGMA Chemical Co.). All binding assays were run at room temperature for 90 minutes and then terminated by rapid filtration on GF/C glass fiber filters (Whatman, Hillsboro, Oreg.) with 50 mM TRIS buffer (4° C., pH 7.4) employing a Brandel Semi-automatic Cell Harvester (Model M48, Brandel, Gaithersburg, Md.). The filters were washed twice with 50 mM TRIS buffer (4° C., pH 7.4) and the filters were placed in liquid scintillation cocktail and the bound radioactivity counted on a Beckman LS 6500 scintillation counter. The potency of the compounds in inhibiting the binding of radiolabelled DAMGO (μ), Deltorphin II (δ), or U69593 (κ) was determined from full concentration-effect curves. With the computer program Prism (GraphPad Software Inc., San Diego, Calif.) the IC50 values were determined using a one-site nonlinear regression analysis of the radioligand binding data. The IC50 values were then converted to Ki values using the Cheng-Prusoff equation. (Cheng Y and Prusoff W H (1973) Relationship between the inhibition constant (K1) and the concentration of inhibitor which causes 50 percent inhibition (I50) of a enzymatic reaction. Biochem Pharm 22:3099-3108.)

δ opioid receptor = molecular target: T2, δ opioid receptor (Rattus norvegicus, UniProt P33533); experiment: Radioligand binding, [3H]Deltorphin II competition, rat brain membranes; conditions: read-out: Rat Brain Membrane K1 (nM) δ
T2 construct: tissue Pel-Freeze Biological Inc. (Rogers, Ark.); host or cells: rat whole brain membranes
Experimental: as §1, §2

κ opioid receptor = molecular target: T3, κ opioid receptor (Cavia porcellus, UniProt P41144); experiment: Radioligand binding, [3H]U69593 competition, guinea pig cerebellum membranes; conditions: read-out: Guinea Pig Brain Membrane K1 (nM) κ
T3 construct: tissue Pel-Freeze Biological Inc. (Rogers, Ark.); host or cells: guinea pig cerebellum membranes
Experimental: as §1, §2

[1] = molecular target: T4, Mu receptor, mouse vas deferens (Mus musculus, UniProt P42866); experiment: Mouse vas deferens, inhibition of electrically induced contractions, mu (with TIPP and nor-BNI); format: cell-based; conditions: in presence of 3 μM TIPP and 15 nM nor-BNI; read-out: Mouse Vas Deferens ED50 (nM) μ
T4 construct: Mouse vasa deferentia (MVD), CD-1 strain, Harlan, Raleigh, N.C.) were removed from mice; tissue Harlan, Raleigh, N.C; (animals); host or cells: mouse vas deferens, CD-1 strain

[2] = Respiratory depression by blood gas (pCO2) monitoring in rats; format: in vivo; conditions: male, Wistar Hannover, in vivo; rat, intravenous
Experimental: (§3) Analgesia was assayed in rats using the tail pinch test with simultaneous monitoring of capillary blood gases (pCO2). During this testing period respiratory depression values were also obtained. Male rats (Wistar Hannover 200-300 g) were anesthetized with 2% isoflurane (J. A. Webster, Inc., Sterling, Mass. The femoral artery was cannulated with PE50 tubing for blood sampling. The external jugular vein was also cannulated with Silastic tubing for drug injection. After surgery, anesthetic gases were removed and the rat was allowed to rest in a plastic restrainer for 60 minutes to establish baseline values of blood gases.
(§4) The compounds 1-6 were administered intravenous. Nociceptive response and respiratory values were obtained for a 1-2 hour period. The femoral artery cannulation was used to draw arterial blood into a syringe pre-wetted with heparin. Samples were then analyzed with a blood gas analyzer (Ph/Gas Analyzer Synthesis 25 Model, Instrumentation Laboratory) to assess respiratory depression effects. The volume of blood taken each time was 0.15 cc. The syringes were capped immediately and the blood gases analyzed within 5 minutes. The blood exposed to air at the tip of the syringe was expelled. The blood was mixed by gentle inversion and an aliquots of 0.10 cc was injected into the blood gas analyzer.
(§5) The gas analyzer was well maintained and operated. Calibrations (low, normal and high) were done at the beginning of every day of testing. The sample lines, co-oximeter and the blood gas electrode were cleaned regularly at the end of every day of testing. Hematocrit calibration (high and low) was scheduled on a weekly basis and tubing, sample and pinch valve were replaced on a monthly basis.
(§6) The ED50 values for analgesia potency and respiratory depression were determined to calculate the safety or therapeutic ratio, which is defined as the respiratory depression ED50 divided by analgesia ED50.

rats = experiment: as above; format: in vivo; conditions: rat; for Respiratory Depression % Units Baseline pCO2: 0.30 mg/kg i.v.
Experimental: as §3, §4, §5, §6

beagle dogs = experiment: Emesis observation in beagle dogs, escalating i.v. doses; format: in vivo, dog; conditions: i.v. slow bolus, 0.1, 0.3 and 0.5 mg/kg
Description: The following describes a procedure that provided observations on the emesis effects of (−)-3-((S)-((2S,5R)-4-allyl-2,5-dimethyl-1-piperazinyl)(3-thienyl)methyl)phenol (DPI-125). Three adult male beagle dogs were separately administered (−)-3-((S)-((2S,5R)-4-allyl-2,5-dimethyl-1-piperazinyl)(3-thienyl)methyl)phenol (DPI-125) in escalating dosages. Doses were chosen to produce blood levels consistent with strong to extreme analgesia and that would produce obvious pharmacological effects including lethargy and sedation. The compound was dissolved in sterile 5% dextrose solution that was buffered with acetic acid/sodium acetate buffer and administered intravenously in a slow bolus injection over 1-2 minutes. Firstly, the three dogs were administered test volume dosages of buffered 5% dextrose to ensure there was no reaction to the vehicle. Secondly, (−)3-((S)-((2S,5R)-4-allyl-2,5-dimethyl-1-piperazinyl)(3-thienyl)methyl)phenol (DPI-125) was administered in single injections at escalating dosages of 0.1, 0.3 and 0.5 mg/kg, with an intervening seven-day period before giving the next highest dose.

In the case of `C=CCN1C[C@H](C)N([C@H](c2ccsc2)c2cccc(O)c2)C[C@H]1C` [Compound 2, (−)3-((S)-((2S,5R)-4-allyl-2,5-dimethyl-1-piperazinyl)(3-thienyl)methyl)phenol], the “K1 relative to the K1 of its enantiomer DPI-165” value (μ opioid receptor; mu and delta receptor binding) is reported as “approximately 1/1000”, the Ki (μ opioid receptor; rat brain membranes, [3H]DAMGO, read-out: Rat Brain Membrane K1 (nM) μ) is reported as 0.4 nM and the Ki (δ opioid receptor) is reported as 0.88 nM. The Ki (κ opioid receptor) was 1.77 nM, the EC50 [1] was 38.8 nM and the ED50 [2] was 0.72 mg/kg. The “Respiratory Depression % Units Baseline pCO2” value (rats; 4 min.) was 48%, the “Respiratory Depression % Units Baseline pCO2” value (rats; 8 min.) was 34% and the “Respiratory Depression % Units Baseline pCO2” value (rats; 32 min.) was 17%. For the same compound, the “Mortality due to respiratory depression” value (rats; i.v.) was “without lethal respiratory depression”, the “Safety Ratio (respiratory depression ED50 divided by analgesia ED50)” value (rats; intravenous) was 15.7 and the “Safety ratio, times greater than any of the other enantiomeric compounds tested” value (rats; intravenous) was “at least six times greater”. The “Safety ratio, times greater than either of the racemic mixtures” value (rats; intravenous) was at least 3 times and the “Retching or vomiting (emesis)” value (beagle dogs) was “No retching or vomiting was observed”.

Reference: patent US6924288B2, “Enantiomerically pure opioid diarylmethylpiperzine and methods of using same” (priority 2001, dated 2005)
